Experimental data published in ChEMBL document CHEMBL5356978 (Bioorg Med Chem Lett, 2024).

system: CT26; assay: Antiproliferative activity against mouse CT26 cells harboring active Wnt/beta-catenin signal assessed as inhibition of cell proliferation by CCK8 assay; details: not given

Point of comparison: `O=c1c(O)c(-c2ccc(O)c(O)c2)oc2c(-c3ccc(F)c(F)c3)c(O)cc(O)c12`, IC50 7.1 µM. Against it:
- COC(=O)c1ccc(-c2c(OC)cc(OC)c3c(=O)c(OC)c(-c4ccc(OC)c(OC)c4)oc23)cc1 — 2.3-fold higher, 16 µM
- O=c1c(O)c(-c2ccc(O)c(O)c2)oc2c(-c3ccccc3)c(O)cc(O)c12 — 2.1-fold lower, 3.32 µM
- COc1ccc(-c2oc3c(C4=CCNCC4)c(OC)cc(OC)c3c(=O)c2OC)cc1OC — 1.8-fold higher, 12.9 µM
- COc1ccc(-c2oc3c(-c4ccc(F)cc4)c(OC)cc(OC)c3c(=O)c2OC)cc1OC — 2.8-fold higher, 19.8 µM
- COc1ccc(-c2oc3c(-c4ccc(C)cc4)c(OC)cc(OC)c3c(=O)c2OC)cc1OC — 1.6-fold higher, 11.4 µM
- COc1ccc(-c2oc3c(-c4ccc(C(F)(F)F)cc4)c(OC)cc(OC)c3c(=O)c2OC)cc1OC — 2.3-fold higher, 16.2 µM
- COc1ccc(-c2oc3c(C4CC4)c(OC)cc(OC)c3c(=O)c2OC)cc1OC — 2.1-fold lower, 3.39 µM
- COc1ccc(-c2oc3c(Nc4ccccc4)c(OC)cc(OC)c3c(=O)c2OC)cc1OC — 2.9-fold lower, 2.49 µM

biological target: T1, beta-catenin-B-cell lymphoma 9 protein complex (Homo sapiens, UniProt P35222); assay: Inhibition of full length beta-catenin (unknown origin)/FAM labeled BCL9 (350 to 375 residues) (unknown origin) protein-protein interaction by competitive FP assay; format: protein-complex assay; details: not given
T1 sequence (P35222 whole entry): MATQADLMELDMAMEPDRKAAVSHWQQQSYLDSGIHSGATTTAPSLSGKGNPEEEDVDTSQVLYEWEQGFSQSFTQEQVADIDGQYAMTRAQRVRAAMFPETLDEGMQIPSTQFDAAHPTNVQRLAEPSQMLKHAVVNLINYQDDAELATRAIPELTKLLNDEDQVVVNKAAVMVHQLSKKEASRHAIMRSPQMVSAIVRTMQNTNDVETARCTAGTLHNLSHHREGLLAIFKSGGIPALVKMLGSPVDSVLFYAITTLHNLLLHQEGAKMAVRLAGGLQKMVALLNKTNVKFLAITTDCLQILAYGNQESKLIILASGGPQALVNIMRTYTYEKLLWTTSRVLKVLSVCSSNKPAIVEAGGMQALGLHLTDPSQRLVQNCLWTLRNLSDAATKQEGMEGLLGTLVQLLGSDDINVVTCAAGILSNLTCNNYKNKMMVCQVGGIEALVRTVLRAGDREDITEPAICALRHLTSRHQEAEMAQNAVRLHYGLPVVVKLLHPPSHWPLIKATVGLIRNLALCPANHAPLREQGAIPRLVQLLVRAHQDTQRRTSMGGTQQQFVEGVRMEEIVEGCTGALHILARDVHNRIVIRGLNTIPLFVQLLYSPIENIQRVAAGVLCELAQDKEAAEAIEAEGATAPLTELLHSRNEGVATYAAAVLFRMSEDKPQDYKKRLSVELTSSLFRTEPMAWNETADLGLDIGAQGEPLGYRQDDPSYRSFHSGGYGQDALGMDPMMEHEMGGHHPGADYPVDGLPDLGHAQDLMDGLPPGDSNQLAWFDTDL
T1 sequence (O00512 whole entry): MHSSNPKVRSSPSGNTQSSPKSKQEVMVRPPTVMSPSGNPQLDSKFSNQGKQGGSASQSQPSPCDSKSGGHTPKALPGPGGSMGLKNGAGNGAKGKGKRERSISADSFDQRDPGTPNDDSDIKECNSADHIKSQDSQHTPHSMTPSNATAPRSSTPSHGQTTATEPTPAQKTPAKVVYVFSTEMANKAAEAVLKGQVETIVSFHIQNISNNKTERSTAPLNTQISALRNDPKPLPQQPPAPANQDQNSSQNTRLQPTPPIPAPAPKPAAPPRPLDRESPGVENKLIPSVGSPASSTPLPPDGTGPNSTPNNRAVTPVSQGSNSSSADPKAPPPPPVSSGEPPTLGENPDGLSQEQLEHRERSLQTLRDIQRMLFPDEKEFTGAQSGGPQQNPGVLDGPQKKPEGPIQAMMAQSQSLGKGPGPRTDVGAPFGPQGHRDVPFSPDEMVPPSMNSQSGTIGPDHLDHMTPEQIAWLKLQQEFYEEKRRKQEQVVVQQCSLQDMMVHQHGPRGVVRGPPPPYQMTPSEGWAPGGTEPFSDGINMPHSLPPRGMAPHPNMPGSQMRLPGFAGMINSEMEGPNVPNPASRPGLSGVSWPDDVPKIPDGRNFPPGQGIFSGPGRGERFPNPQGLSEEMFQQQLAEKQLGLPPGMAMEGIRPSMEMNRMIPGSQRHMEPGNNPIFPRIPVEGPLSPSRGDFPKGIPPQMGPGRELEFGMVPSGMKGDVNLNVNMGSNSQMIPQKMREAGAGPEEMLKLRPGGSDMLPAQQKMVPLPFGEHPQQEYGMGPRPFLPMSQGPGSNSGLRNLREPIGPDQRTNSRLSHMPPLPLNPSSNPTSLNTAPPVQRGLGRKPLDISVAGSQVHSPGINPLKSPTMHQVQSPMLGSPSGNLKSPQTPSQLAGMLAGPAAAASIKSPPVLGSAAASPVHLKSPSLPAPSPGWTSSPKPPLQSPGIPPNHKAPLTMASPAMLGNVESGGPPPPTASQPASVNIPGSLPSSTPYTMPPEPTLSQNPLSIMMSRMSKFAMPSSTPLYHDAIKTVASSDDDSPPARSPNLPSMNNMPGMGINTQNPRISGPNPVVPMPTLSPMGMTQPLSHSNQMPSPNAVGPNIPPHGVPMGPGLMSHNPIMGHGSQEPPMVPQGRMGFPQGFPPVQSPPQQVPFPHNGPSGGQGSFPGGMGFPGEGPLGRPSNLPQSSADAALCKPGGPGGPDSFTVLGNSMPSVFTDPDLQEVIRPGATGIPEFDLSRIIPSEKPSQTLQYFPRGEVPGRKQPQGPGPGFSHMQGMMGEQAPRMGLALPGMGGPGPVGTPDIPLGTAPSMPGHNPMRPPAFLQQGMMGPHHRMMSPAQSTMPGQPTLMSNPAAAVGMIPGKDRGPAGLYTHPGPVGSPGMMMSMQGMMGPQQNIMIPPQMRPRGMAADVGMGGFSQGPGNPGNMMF

Point of comparison: `COc1ccc(-c2oc3c(-c4ccc(C)cc4)c(OC)cc(OC)c3c(=O)c2OC)cc1OC`, IC50 5.24 µM. Against it:
- COC(=O)c1ccc(-c2c(OC)cc(OC)c3c(=O)c(OC)c(-c4ccc(OC)c(OC)c4)oc23)cc1 — within 1.5-fold, 7.64 µM
- O=c1c(O)c(-c2ccc(O)c(O)c2)oc2c(-c3ccc(F)c(F)c3)c(O)cc(O)c12 — 1.7-fold lower, 3.15 µM
- O=c1c(O)c(-c2ccc(O)c(O)c2)oc2c(-c3ccccc3)c(O)cc(O)c12 — within 1.5-fold, 3.83 µM
- COc1ccc(-c2oc3c(C4=CCNCC4)c(OC)cc(OC)c3c(=O)c2OC)cc1OC — 1.7-fold higher, 8.92 µM
- COc1ccc(-c2oc3c(-c4ccc(F)cc4)c(OC)cc(OC)c3c(=O)c2OC)cc1OC — within 1.5-fold, 6.93 µM
- COc1ccc(-c2oc3c(-c4ccc(C(F)(F)F)cc4)c(OC)cc(OC)c3c(=O)c2OC)cc1OC — 1.7-fold higher, 8.81 µM
- COc1ccc(-c2oc3c(C4CC4)c(OC)cc(OC)c3c(=O)c2OC)cc1OC — 3.8-fold higher, 20 µM
- COc1ccc(-c2oc3c(Nc4ccccc4)c(OC)cc(OC)c3c(=O)c2OC)cc1OC — 3.1-fold higher, 16.2 µM

system: not listed separately; assay: Inhibition of Wnt/beta-catenin signaling pathway in mouse CT26 cells assessed as downregulation of AXIN2 expression incubated for 24 hrs by qPCR analysis; details: CT26, 24 h

Point of comparison: `COC(=O)c1ccc(-c2c(OC)cc(OC)c3c(=O)c(OC)c(-c4ccc(OC)c(OC)c4)oc23)cc1`, IC50 12 µM. Against it:
- O=c1c(O)c(-c2ccc(O)c(O)c2)oc2c(-c3ccc(F)c(F)c3)c(O)cc(O)c12 — 8.3-fold lower, 1.45 µM
- O=c1c(O)c(-c2ccc(O)c(O)c2)oc2c(-c3ccccc3)c(O)cc(O)c12 — 9.2-fold lower, 1.31 µM
- COc1ccc(-c2oc3c(C4=CCNCC4)c(OC)cc(OC)c3c(=O)c2OC)cc1OC — 11-fold lower, 1.06 µM
- COc1ccc(-c2oc3c(-c4ccc(F)cc4)c(OC)cc(OC)c3c(=O)c2OC)cc1OC — 2.6-fold lower, 4.57 µM
- COc1ccc(-c2oc3c(-c4ccc(C)cc4)c(OC)cc(OC)c3c(=O)c2OC)cc1OC — 6.1-fold lower, 1.97 µM
- COc1ccc(-c2oc3c(-c4ccc(C(F)(F)F)cc4)c(OC)cc(OC)c3c(=O)c2OC)cc1OC — within 1.5-fold, 9.2 µM
- COc1ccc(-c2oc3c(C4CC4)c(OC)cc(OC)c3c(=O)c2OC)cc1OC — 5.9-fold lower, 2.04 µM
- COc1ccc(-c2oc3c(Nc4ccccc4)c(OC)cc(OC)c3c(=O)c2OC)cc1OC — 11-fold lower, 1.09 µM
